Counter-ions that a name gives are not always drawn.
These molecules were tested on ventricular fibrillation (assay: Antiarrhythmic action against chloroform in mice (suppression of ventricular fibrillation)). Conditions: Mus musculus, 20 min, 100 mg/kg, 20 minutes before chloroform, read-out: Rate of suppression (%) of ventricular fibrillation.
Format: in vivo
Procedure: <Antiarrhythmic action against chloroform in mice>
A test compound was administered to mice at a dose of 100 mg/kg. After 20 minutes, mice were placed in a pot filled with chloroform. Mice were taken out immediately after respiratory arrest. Electrocardiogram was recorded at the 11th induction, and ventricular tachycardia, ventricular fibrillation, and the time until cardiac arrest were measured.
Molecule `Cc1cc2c(c3c1NC(=S)C3(C)C)O[C@@H](CN)[C@@H]2C` (relative stereo) [Example 35, (2R*,3R*)-2-aminomethyl-2,3,7,8-tetrahydro-3,5,8,8-tetramethyl-6H-furo 2,3-e!indol-7-thione.cndot.hydrochloride] has an inhibition in vivo at 100 mg/kg of 100%. Molecule `Cc1cc2c(c3c1NC(=O)C3(C)C)OC(CNCc1ccccc1)C2` (centres unmarked) [Example 15, 2-Benzylaminomethyl-2,3,7,8-tetrahydro-5,8,8-trimethyl-6H-furo 2,3-e!indol-7-one.cndot.hydrochloride] has an inhibition in vivo at 100 mg/kg of 100%. `Cc1cc2c(c3c1NC(=O)C3(C)C)OC(Cn1ccnc1)C2` (centres unmarked) [Example 16, 2-(1-Imidazolyl)methyl-2,3,7,8-tetrahydro-5,8,8-trimethyl-6H-furo 2,3-e!indol-7-one.cndot.hydrochloride] was tested, and the inhibition in vivo at 100 mg/kg was 90%. In the case of `Cc1cc2c(c3c1NC(=O)C3(C)C)OC(CN(C)C)C2` (centres unmarked) [Example 17, 2-Dimethylaminomethyl-2,3,7,8-tetrahydro-5,8,8-trimethyl-6H-furo 2,3-e!indol-7-one.cndot.hydrochloride], the inhibition in vivo at 100 mg/kg is reported as 100%. Work on `CCCCCCc1cc2c(c3c1NC(=O)C3(C)C)OC(CN)C2` (centres unmarked) [Example 25 (9), 2-Aminomethyl-8,8-dimethyl-5-n-hexyl-2,3,7,8-tetrahydro-6H-furo 2,3-e!indol-7-one.cndot.hydrochloride] yielded an inhibition in vivo at 100 mg/kg of 100%. In the case of `CCCCc1cc2c(c3c1NC(=O)C3(C)C)OC(CN)C2` (centres unmarked) [Example 28 (9)HCl, 2Aminomethyl-5-n-butyl-8,8-dimethyl-2,3,7,8-tetrahydro-6H-furo 2,3-e!indol-7-one.cndot.hydrochloride], the inhibition in vivo at 100 mg/kg is reported as 90%. Molecule `CCOC(=O)c1cc2c3c(ccc2[nH]1)CC(CN)O3` (centres unmarked) [Example 47 (5), 2-Aminomethyl-2,3-dihydro-7-ethoxycarbonyl-6H-furo 2,3-e!indole.cndot.hydrochloride] has an inhibition in vivo at 100 mg/kg of 90%.

Same assay, conditions: Mus musculus, 20 min, Dose: 30 mg/kg, 20 minutes before chloroform, read-out: Rate of suppression (%) of ventricular fibrillation
`Cc1cc2c(c3c1NC(=O)C3(C)C)O[C@@](C)(CN)[C@@H]2C` (relative stereo) [Example 55 (B isomer), (2R*,3R*)-2-aminomethyl-2,3,5,8,8-pentamethyl-2,3,7,8-tetrahydro-6H-furo 2 ,3-e!indol-7one.cndot.hydrochloride] showed an inhibition in vivo at 30 mg/kg of 100%.

These molecules were tested on atrium specimen (assay: Inotropic action in atrium specimen and anti-chronotropic action in guinea pigs). Conditions: Cavia porcellus; guinea pig atrium; 10^-5 M; "light atrium", left atrium stimulated at 1 Hz; read-out: Rate contraction increase (%).
Procedure: <Inoropic action in atrium specimen and anti-chronotropic action in guinea pigs>
After bruising on the head, guinea pigs were dehematized by sectioning carotid arteries and their heart was enucleated. Right and left atriums were taken out. These atriums were suspended in Krebs-Henseleit solution wherein 95% O2-5 % CO2 was bubbled. The tension was measured by a strain gauge and recorded via an amplifier. Pulsation at the right atrium was counted via a tachometer to determine the heart rate. Electric stimulation, twice a magnitude of the ceiling value at 1 Hz, 5 msec, was given to the left atrium. The test compound was administered at an interval of 5 minutes.
The results, shown in Table 2, indicate the rate of contraction increase of the light atrium at a dose of 10^-5 M of the test compound.
With `CC[C@H]1c2cc(C)c3c(c2O[C@H]1CN)C(C)(C)C(=O)N3` (relative stereo) [Example 7 (6)(b), (2R* ,3S*)-2-aminomethyl-3-ethyl-2,3,7,8-tetrahydro-5,8,8-trimethyl-6H-furo 2,3-e!indol-7-one.cndot.hydrochloride] the activation at 10 µM was 27%. `Cc1cc2c(c3c1NC(=O)C3(C)C)O[C@@](C)(CN)[C@@H]2C` (relative stereo) [Example 55 (B isomer), (2R*,3R*)-2-aminomethyl-2,3,5,8,8-pentamethyl-2,3,7,8-tetrahydro-6H-furo 2 ,3-e!indol-7one.cndot.hydrochloride] was tested, and the activation at 10 µM was 24%. `Cc1cc2c(c3c1NC(=O)C3(C)C)OC(CN)C2` (centres unmarked) [Example 1 (9), 2-Aminomethyl-2,3,7,8-tetrahydro-5,8,8-trimethyl-6H-furo 2,3-e!indol-7-onehydrochloride] was tested, and the activation at 10 µM was 13%. `Cc1cc2c(c3c1NC(=O)C3(C)C)OC(C)(CN)C2` (centres unmarked) [Example 2 (8), 2-Aminomethyl-2,3,7,8-tetrahydro-2,5,8,8-tetramethyl-6H-furo 2,3-e!indol-7-one.cndot.hydrochloride] showed an activation at 10 µM of 23%. With `CNCC1Cc2cc(C)c3c(c2O1)C(C)(C)C(=O)N3` (centres unmarked) [Example 14, 2-Methylaminomethyl-2,3,7,8-tetrahydro-5,8,8-trimethyl-6H-furo 2,3-e!indol-7-one.cndot.hydrochloride] the activation at 10 µM was 20%. Molecule `Cc1cc2c(c3c1NC(=O)C3(C)C)OC(CN1CCCCC1)C2` (centres unmarked) [Example 19, 2-(1-Piperidinyl)methyl-2,3,7,8-tetrahydro-5,8,8-trimethyl-6H-furo 2,3-e!in dol-7-one.cndot.hydrochloride] has an activation at 10 µM of 28%. `CCCCCCc1cc2c(c3c1NC(=O)C3(C)C)OC(CN)C2` (centres unmarked) [Example 25 (9), 2-Aminomethyl-8,8-dimethyl-5-n-hexyl-2,3,7,8-tetrahydro-6H-furo 2,3-e!indol-7-one.cndot.hydrochloride] gave an activation at 10 µM of 46%. Molecule `Cc1c(C)c2c(c3c1CC(CN)O3)C(C)(C)C(=O)N2` (centres unmarked) [Example 30 (8)HCl, 2-Aminomethyl-2,3,7,8-tetrahydro-4,5,8,8-tetramethyl-6H-furo 2,3-e!indol-7-one.cndot.hydrochloride] has an activation at 10 µM of 28%.

What follows are molecules tested on hind-leg blood flow (assay: Action on hind-leg blood flow in anesthetized dogs). Conditions: 100 μg into femoral artery.
Format: in vivo, Hybrid adult dogs
Procedure: <Action on hind-leg blood flow in anesthetized dogs>
Hybrid adult dogs were anesthetized by intravenous injection of 30 mg/kg of sodium pentobarbital. After administration of heparin, an extracorporeal circulation circuit was formed in femoral artery. The blood flows at hind-legs were measured by fixing an electromagnetic blood flow meter probe in the circuit. The test compound at a dose of 100 μg was administered into femoral artery via a tube provided in the circuit. The results in Table 3 show the rate of blood flow increase.
In the case of `Cc1cc2c(c3c1NC(=O)C3(C)C)OC(CN)C2.Cl` (centres unmarked) [Example 1 (a), 2-Aminomethyl-2,3,7,8-tetrahydro-5,8,8-trimethyl-6H-furo 2,3-e!indol-7-onehydrochloride], the “Rate of blood flow increase (%)” value is reported as 192%.

Same assay, conditions: Canis lupus familiaris, 100 μg into femoral artery, read-out: Rate of blood flow increase (%)
In the case of `Cc1cc2c(c3c1NC(=O)C3(C)C)O[C@@H](CN)[C@@H]2C` (relative stereo) [Example 3 (5) (Former component), (2R*,3R*)-2-aminomethyl-2,3,7,8-tetrahydro-3,5,8,8-tetramethyl-6H-furo 2,3-e!indol-7-one.cndot.hydrochloride], the change in vivo at 0.1 mg is reported as 128%. `Cc1cc2c(c3c1NC(=O)C3(C)C)O[C@@](C)(CN)[C@@H]2C` (relative stereo) [Example 55 (B isomer), (2R*,3R*)-2-aminomethyl-2,3,5,8,8-pentamethyl-2,3,7,8-tetrahydro-6H-furo 2 ,3-e!indol-7one.cndot.hydrochloride] showed a change in vivo at 0.1 mg of 55%. `Cc1cc2c(c3c1NC(=O)C3(C)C)OCC2CN` (centres unmarked) [Example 13 (3), 3-Aminomethyl-2,3,7,8-tetrahydro-5,8,8-trimethyl-6H-furo 2,3-e!indol-7-one.cndot.hydrochloride] was tested, and the change in vivo at 0.1 mg was 55%. `Cc1cc2c(c3c1NC(=O)C3(C)C)OC(Cn1ccnc1)C2` (centres unmarked) [Example 16, 2-(1-Imidazolyl)methyl-2,3,7,8-tetrahydro-5,8,8-trimethyl-6H-furo 2,3-e!indol-7-one.cndot.hydrochloride] was tested, and the change in vivo at 0.1 mg was 90%. `CCCCNCC1Cc2cc(C)c3c(c2O1)C(C)(C)C(=O)N3` (centres unmarked) [Example 18, 2-n-Butylaminomethyl-2,3,7,8-tetrahydro-5,8,8-trimethyl-6H-furo 2,3-e!indol-7-one.cndot.hydrochloride] showed a change in vivo at 0.1 mg of 145%. In the case of `Cc1cc2c(c3c1NC(=O)C3(C)C)OC(CN1CCN(Cc3ccccc3)CC1)C2` (centres unmarked) [Example 20, 2-(4-Benzyl-1-piperadinyl)methyl-2,3,7,8-tetrahydro-5,8,8-trimethyl-6H-furo 2,3-e!indol-7-one.cndot.dihydrochloride], the change in vivo at 0.1 mg is reported as 96%. For `Cc1cc2c(c3c1NC(=O)C3(C)C)OC(CN1CCNCC1)C2` (centres unmarked) [Example 22, 2-(1-Piperadinyl)methyl-2,3,7,8-tetrahydro-5,8,8-trimethyl-6H-furo 2,3-e!in dol-7-one.cndot.dihydrochloride], the change in vivo at 0.1 mg was 121%. Work on `COc1ccc(C(=O)N2CCN(CC3Cc4cc(C)c5c(c4O3)C(C)(C)C(=O)N5)CC2)cc1OC` (centres unmarked) [Example 23, 2-4-(3,4-dimethoxybenzoyl)-1-piperadinyl!methyl-2,3,7,8-tetrahydro-5,8,8-trimethyl-6H-furo 2,3-e!indol-7-one.cndot.hydrochloride] yielded a change in vivo at 0.1 mg of 81%. With `CCc1cc2c(c3c1NC(=O)C3(C)C)OC(CN)C2` (centres unmarked) [Example 26 (6), 2-Aminomethyl-8,8-dimethyl-5-ethyl-2,3,7,8-tetrahydro-6H-furo 2,3-e!indol-7-one.cndot.hydrochloride] the change in vivo at 0.1 mg was 216%.
